The source of these data is patent US8268848B2, “Cyclopropane compound” (Eisai R&D Management Co., Ltd., priority 2010, dated 2012).

The term pIC50 denotes the negative decadic logarithm of the IC50, by convention in mol/L. The IC50 is the concentration that inhibits the measured activity by half.

One assay addresses T1, OX1 (Homo sapiens, UniProt O43613).
T1 sequence (O43613 1-425): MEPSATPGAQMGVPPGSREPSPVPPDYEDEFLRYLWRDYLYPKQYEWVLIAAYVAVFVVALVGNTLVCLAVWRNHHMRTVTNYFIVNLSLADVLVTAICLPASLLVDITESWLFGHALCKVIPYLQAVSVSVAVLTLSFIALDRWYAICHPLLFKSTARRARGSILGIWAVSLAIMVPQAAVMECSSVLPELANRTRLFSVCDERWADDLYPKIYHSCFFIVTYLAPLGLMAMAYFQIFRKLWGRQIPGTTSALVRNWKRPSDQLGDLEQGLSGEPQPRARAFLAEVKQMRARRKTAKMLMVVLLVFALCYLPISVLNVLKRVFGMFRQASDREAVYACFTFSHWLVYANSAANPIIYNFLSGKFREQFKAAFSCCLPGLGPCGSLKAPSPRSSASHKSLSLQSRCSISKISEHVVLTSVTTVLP
The assay is described as follows: Measurement of orexin receptor-binding ability ([125I]-OX-A, cell membranes, OX1). On the set-up: expressed in transfected cells; host or cells: CHO cells (membrane preparation). The method, then: (§1) 1. Measurement of Orexin Receptor-Binding Ability
(§2) The assay was carried out using a 96-well Wheat Germ Agglutinin Flash Plate (PerkinElmer). The volume in a single assay well was 100 ul, and the composition of the reaction solution was as follows:
(§3) 25 mM HEPES (pH 7.5), 1 mM CaCl2, 4.5 mM MgCl2, 0.5% BSA (bovine serum albumin), 0.1% sodium azide, 0.05% Tween-20, and 0.2% DMSO.
(§4) Cell membranes were prepared from recombinant CHO cells that expressed OX2 or OX1. The cell membranes were used in an amount of 5 μg protein/assay. […] Finally, the radioactivity of each well was measured using a scintillation counter (TopCount, PerkinElmer).

Another assay has as its target T2, OX2 (Homo sapiens, UniProt O43614).
T2 sequence (O43614 1-444): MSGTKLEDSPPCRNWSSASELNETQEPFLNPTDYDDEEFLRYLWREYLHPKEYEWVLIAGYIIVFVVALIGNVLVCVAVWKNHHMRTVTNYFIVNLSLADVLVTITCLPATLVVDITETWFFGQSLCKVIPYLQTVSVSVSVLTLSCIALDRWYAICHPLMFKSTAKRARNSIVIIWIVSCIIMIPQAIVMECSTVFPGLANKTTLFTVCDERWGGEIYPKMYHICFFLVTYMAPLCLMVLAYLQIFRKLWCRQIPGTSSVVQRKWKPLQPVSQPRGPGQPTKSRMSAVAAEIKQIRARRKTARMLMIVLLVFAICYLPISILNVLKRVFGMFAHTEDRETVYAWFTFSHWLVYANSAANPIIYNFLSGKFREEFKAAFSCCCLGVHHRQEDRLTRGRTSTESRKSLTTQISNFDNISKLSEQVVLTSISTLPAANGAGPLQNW
Kind of assay: Measurement of orexin receptor-binding ability ([125I]-OX-A, cell membranes, OX2). Details: expressed in transfected cells; host or cells: CHO cells (membrane preparation). The conditions noted are these: membranes of recombinant CHO cells expressing OX2, 0.2 nM [125I]-OX-A; for pIC50: read-out: OX2 (IC50); for IC50: OX2 (IC50) nM. How it is done: as §1, §2, §3, §4

Setting [1] is: membranes of recombinant CHO cells expressing OX1, 0.2 nM [125I]-OX-A, read-out: OX1 (IC50).

pIC50: −log10 of the molar value. Like-named read-outs stand apart in the source and are kept apart here.

As for `Cc1ncc(OC[C@@]2(c3ccccc3)C[C@H]2C(=O)Nc2ncc(C)s2)c(C)n1` [Example 2], the figures for the pIC50 on OX1 (setting [1]) and at OX2 were 6.53 and 7.72, respectively. As to `Cc1ncc(OC[C@@]2(c3ccccc3)C[C@H]2C(=O)Nc2nc(C)c(C)s2)c(C)n1` [Example 4], the pIC50 on OX1 (setting [1]) was 7.26; on OX2, 7.42. The like results for `Cc1ncc(OC[C@@]2(c3ccccc3)C[C@H]2C(=O)Nc2ccc(C(F)(F)F)cn2)c(C)n1` [Example 5] were, in that order, 6.84 and 7.42. In the same order, the values of `Cc1ncc(OC[C@@]2(c3ccccc3)C[C@H]2C(=O)Nc2cc(C(F)(F)F)ccn2)c(C)n1` [Example 10] are 6.64 and 7.51. In the same order, the values of `COc1cccc(NC(=O)[C@@H]2C[C@@]2(COc2cnc(C)nc2C)c2ccccc2)n1` [Example 11] are 6.55 and 7.28. Take `Cc1ncc(OC[C@@]2(c3ccccc3)C[C@H]2C(=O)Nc2cccc(Cl)n2)c(C)n1` [Example 12]: the pIC50 on OX1 (setting [1]) is 6.61; on OX2 it was 7.28. In the same order, the values of `Cc1ncc(OC[C@@]2(c3ccccc3)C[C@H]2C(=O)Nc2ccc3ccncc3c2)c(C)n1` [Example 13] are 5.91 and 7.15. The like results for `COCc1ccnc(NC(=O)[C@@H]2C[C@@]2(COc2cnc(C)nc2C)c2ccccc2)c1` [Example 14] were, in that order, 6.52 and 7.80. For the compound `Cc1ncc(OC[C@@]2(c3ccccc3)C[C@H]2C(=O)Nc2cc(C(F)F)ccn2)c(C)n1` [Example 15], the pIC50 on OX1 was 6.67. At OX2, the IC50 was 41 nM. On to `Cc1ncc(OC[C@@]2(c3ccccc3)C[C@H]2C(=O)Nc2cccc(CO)c2)c(C)n1` [Example 17], for which the pIC50 on OX1 (setting [1]) was 6.53; on OX2 it was 7.42. In the same order, the values of `Cc1ncc(OC[C@@]2(c3ccccc3)C[C@H]2C(=O)Nc2ccnc(F)c2)c(C)n1` [Example 18] are 6.46 and 7.48.

On to `Cc1ncc(OC[C@@]2(c3ccccc3)C[C@H]2C(=O)Nc2cccc(N(C)C)c2)c(C)n1` [Example 19, (1R,2S)-N-[3-(dimethylamino)phenyl]-2-{[(2,4-dimethylpyrimidin-5-yl)oxy]methyl}-2-phenylcyclopropanecarboxamide], for which the figures for the pIC50 at OX1 (setting [1]) and at OX2 were 7.03 and 8.00, respectively.

For `Cc1ncc(OC[C@@]2(c3ccccc3)C[C@H]2C(=O)Nc2ccc3c(c2)N(C)C(=O)CO3)c(C)n1` [Example 22], the pIC50 was 6.56 on OX1 (setting [1]) and 7.77 on OX2. Regarding `Cc1ncc(OC[C@@]2(c3ccccc3)C[C@H]2C(=O)Nc2ccc3c(c2)NC(=O)CO3)c(C)n1` [Example 23], the negative logarithm of the IC50 (pIC50) is 5.77 at OX1 (setting [1]) and 7.17 at OX2. In the same order, the values of `Cc1ncc(OC[C@@]2(c3ccccc3)C[C@H]2C(=O)Nc2cccc(Cl)c2)c(C)n1` [Example 24, (1R,2S)-N-(3-chlorophenyl)-2-{[(2,4-dimethylpyrimidin-5-yl)oxy]methyl}-2-phenylcyclopropanecarboxamide] are 7.55 and 8.15. As for `Cc1ncc(OC[C@@]2(c3ccccc3)C[C@H]2C(=O)Nc2ccc(Cl)cc2)c(C)n1` [Example 25], the negative logarithm of the IC50 (pIC50) is 6.03 at OX1 (setting [1]) and 7.23 on OX2.

Take `Cc1ncc(OC[C@@]2(c3ccccc3)C[C@H]2C(=O)Nc2ccc(Cl)c(C#N)c2)c(C)n1` [Example 27]: the pIC50 was 6.77 on OX1 (setting [1]) and 7.82 on OX2.

With `Cc1cc(NC(=O)[C@@H]2C[C@@]2(COc2cnc(C)nc2C)c2ccccc2)ccn1` [Example 28], the figures for the pIC50 on OX1 (setting [1]) and at OX2 were 5.77 and 7.00, respectively. The like results for `Cc1ncc(OC[C@@]2(c3ccccc3)C[C@H]2C(=O)Nc2cccc(S(C)(=O)=O)c2)c(C)n1` [Example 29] were, in that order, 6.34 and 7.26. The like results for `Cc1ncc(OC[C@@]2(c3ccccc3)C[C@H]2C(=O)Nc2ccc(F)c(F)c2)c(C)n1` [Example 30] were, in that order, 7.11 and 7.92. In the same order, the values of `Cc1ncc(OC[C@@]2(c3ccccc3)C[C@H]2C(=O)Nc2cc(F)cc(F)c2)c(C)n1` [Example 31] are 6.65 and 7.59.

For the compound `Cc1ncc(OC[C@@]2(c3ccccc3)C[C@H]2C(=O)Nc2ccc(F)c(Cl)c2)c(C)n1` [Example 32, (1R,2S)-N-(3-chloro-4-fluorophenyl)-2-{[(2,4-dimethylpyrimidin-5-yl)oxy]methyl}-2-phenylcyclopropanecarboxamide], the pIC50 at OX1 (setting [1]) is 7.82; on OX2, 8.46. In the same order, the values of `Cc1ncc(OC[C@@]2(c3ccccc3)C[C@H]2C(=O)Nc2ccnc(Cl)c2)c(C)n1` [Example 33] are 6.68 and 7.82.

On OX1, `Cc1ncc(OC[C@@]2(c3ccccc3)C[C@H]2C(=O)Nc2cc(F)cc(C#N)c2)c(C)n1` [Example 34] gave a pIC50 of 6.37. At OX2, the IC50 came out at 18 nM. Turning to `Cc1ncc(OC[C@@]2(c3ccccc3)C[C@H]2C(=O)Nc2cc(Cl)cc(C#N)c2)c(C)n1` [Example 35], the pIC50 is 6.25 at OX1 (setting [1]) and 7.37 at OX2.

In the case of `COc1cccc(NC(=O)[C@@H]2C[C@@]2(COc2cnc(C)nc2C)c2ccccc2)c1` [Example 36, (1R,2S)-2-{[(2,4-dimethylpyrimidin-5-yl)oxy]methyl}-N-(3-methoxyphenyl)-2-phenylcyclopropanecarboxamide], the pIC50 at OX1 (setting [1]) was 8.05; on OX2, 8.52. Regarding `CC(=O)c1cccc(NC(=O)[C@@H]2C[C@@]2(COc2cnc(C)nc2C)c2ccccc2)c1` [Example 37], on OX1, the pIC50 is 7.39. Besides, the IC50 on OX2 stood at 8 nM.

Turning to `Cc1ncc(OC[C@@]2(c3ccccc3)C[C@H]2C(=O)Nc2cccc(-c3nnc[nH]3)c2)c(C)n1` [Example 38], the pIC50 at OX1 (setting [1]) was 6.29; at OX2 it was 7.54. The like results for `Cc1ncc(OC[C@@]2(c3ccccc3)C[C@H]2C(=O)Nc2cccc(CC#N)c2)c(C)n1` [Example 39, (1R,2S)-N-[3-(cyanomethyl)phenyl]-2-{[(2,4-dimethylpyrimidin-5-yl)oxy]methyl}-2-phenylcyclopropanecarboxamide] were, in that order, 6.45 and 8.22. `Cc1ncc(OC[C@@]2(c3ccccc3)C[C@H]2C(=O)Nc2cccc(CCO)c2)c(C)n1` [Example 40]: the pIC50 was 6.76 on OX1 (setting [1]) and 8.05 on OX2. The like results for `Cc1ncc(OC[C@@]2(c3ccccc3)C[C@H]2C(=O)Nc2ccnc(C#N)c2)c(C)n1` [Example 41, (1R,2S)-N-(2-cyanopyridin-4-yl)-2-{[(2,4-dimethylpyrimidin-5-yl)oxy]methyl}-2-phenylcyclopropanecarboxamide] were, in that order, 6.90 and 8.10.

The compound `COCc1cccc(NC(=O)[C@@H]2C[C@@]2(COc2cnc(C)nc2C)c2ccccc2)c1` [Example 42] had a pIC50 at OX1 of 6.43. In addition, the IC50 on OX2 was 12 nM.

Turning to `Cc1ncc(OC[C@@]2(c3ccccc3)C[C@H]2C(=O)Nc2cccc(C(F)(F)F)c2)c(C)n1` [Example 43, (1R,2S)-2-{[(2,4-dimethylpyrimidin-5-yl)oxy]methyl}-2-phenyl-N-[3-(trifluoromethyl)phenyl]cyclopropanecarboxamide], the pIC50 was 7.07 at OX1 (setting [1]) and 8.15 at OX2.

Take `Cc1ncc(OC[C@@]2(c3ccccc3)C[C@H]2C(=O)Nc2cc(C#N)ccn2)c(C)n1` [Example 46]: the negative-log IC50 (pIC50) at OX1 (setting [1]) was 6.37; at OX2 it was 7.37. In the same order, the values of `Cc1ccnc(NC(=O)[C@@H]2C[C@@]2(COc2cnc(C)nc2C)c2ccccc2)c1` [Example 47] are 6.64 and 7.54.

The compound `Cc1ncc(OC[C@@]2(c3ccccc3)C[C@H]2C(=O)Nc2cc(Cl)ccn2)c(C)n1` [Example 49] gave a negative-log IC50 (pIC50) at OX1 of 7.19. Moreover, the IC50 at OX2 came to 23 nM. For `Cc1ncc(OCC2(c3ccccc3C)CC2C(=O)Nc2ccc(C#N)cn2)c(C)n1` (stereo not shown) [Example 178], the negative-log IC50 (pIC50) at OX1 is 6.11.
